Broadly, the IC50 is the concentration that gives 50% inhibition. A higher IC50 goes with weaker potency.

The values that follow come from article PMC9916762, “Impact of Hydrophobic Chains in Five-Coordinate Glucoconjugate Pt(II) Anticancer Agents” (International Journal of Molecular Sciences, 2023).

The subject of series [1] is immortalized human keratinocytes (HaCaT). Kind of series: MTT cell viability assay, HaCaT. It counts as cell-based. The settings on record: 48 h incubation. The source says: (§1) The immortalized human keratinocytes (HaCaT) were from Innoprot.
In general terms: Formazan colour is commonly taken as a measure of viable cells.

Series [2] can be described thus: Octanol/water partition coefficient, shake-flask method. As to conditions: n-octanol/water, UV-vis. Format: physicochemical. The protocol: The partition coefficients in octanol/water (log Po/w) were measured using the shake-flask method, by calculating the equilibrium concentrations through UV spectra (Table 1).
Partition coefficients for the platinum complexes were determined in triplicate in an n-octanol/water system, with different ratios (1:1, 1:2, 2:1). Each complex was dissolved in n-octanol at the concentrations 16.7, 12.5, or 10 μM and subsequently, an appropriate volume of water was added. The mixtures were shaken mechanically for 1 h to ensure the distribution between the two solvent phases. The samples were then centrifuged (13,000 rpm, 10 min). Afterwards, the platinum concentration was determined in the octanol phases by UV–vis spectrophotometry, after collecting a calibration line for each complex. Results are expressed as the logarithm of the partition coefficient of octanol/water (log Po/w), which is the logarithm of the concentration of platinum in the n-octanol divided by its concentration in the aqueous layer.

The next series relates to Calf thymus DNA. Kind of series: Ethidium bromide displacement DNA binding assay. As to conditions: 0.05 M ammonium acetate pH 7.5, titration with complex. The source says: The interaction of Pt-based drugs with biological macromolecules deeply affects their biological activity. DNA represents a target for this kind of metallodrug, while proteins are considered both as carriers and targets. To obtain information on the reactivity of the synthesised Pt compounds with DNA, fluorescence intercalation displacement assays have been performed using ethidium bromide (EB) as the DNA intercalator. When bound to DNA, EB has an emission fluorescence of significant intensity. On the other hand, when it is displaced by a competitive DNA-binding molecule, it undergoes quenching by water molecules. Thus, if a molecule binds DNA by displacing EB, a significant reduction in the fluorescence intensity of the EB-DNA complex will be observed.
The ethidium bromide (EB) displacement assay was performed on a HORIBA FluoroMax-4 spectrofluorometer equipped with a thermostat bath. Calf thymus DNA was incubated with EB in 0.05 M of ammonium acetate at pH 7.5, at a DNA:EB molar ratio of 1:5 for 30 min in the dark at room temperature. Then, the fluorescence quenching of this complex was evaluated by adding to it increasing amounts of Pt compounds dissolved in DMSO (20 mM). Samples were equilibrated for 5 min before collecting each spectrum. […]

Series [3] concerns murine fibroblast BALB/c-3T3 transformed with the SV40 virus (SVT2). Kind of series: MTT cell viability assay, SVT2. It counts as cell-based.
From the text: as §1

Series [4] can be described thus: In-solution stability in DMSO (1H NMR, UV-vis). It counts as physicochemical. As to conditions: 50 μM in DMSO, 25 °C, up to 7 days. The protocol:
The stability of the complexes in DMSO-d6, the solvent used to prepare stock solutions for biological experiments, was evaluated by recording their UV–vis absorptions and ^1H-NMR spectra over time.
UV–vis absorption spectra of 1-Me,Me were recorded in DMSO for 5 h and then after 24 h and 7 days (Figure 5). […] In fact, the λmax experienced a blue shift from 278 to 269 nm, giving rise to an isosbestic point at 275 nm. In addition, a decrease in the absorbance of the shoulder at 300 nm is observed, together with an absorbance increase in the shoulder at 260 nm. […] It is highly probable that a slow release of ethene and dmphen can occur. This would lead to the formation of the square planar species of type 4-R,R’, as reported in Scheme 3.
In all cases, no cleavage of the Pt–carbene bond was detected. Figure 6 reports the ^1H NMR spectra of 1-Me,Oct after dissolution, 1.5, 5, and 24 h.
The stability of the 1-R,R’ complexes in DMSO was studied by dissolving 5 mg of each complex in 250 μL of DMSO-d6 and then diluting 200 μL of this solution with 300 μL of DMSO-d6. The stability of the 1-R,R’ complexes in aqueous solvents was studied by dissolving 5 mg of each complex in 250 μL of DMSO-d6 and then diluting 50 μL of this solution with 500 μL of D2O. The ^1H-NMR spectra of the resulting solutions were recorded over time. […]

In series [5] the test system is human epidermoid carcinoma cells (A431). In words: MTT cell viability assay, A431. Format: cell-based.
From the text: as §1

The subject of another series is SVT2 cells. Kind of series: Western blot of pro-caspases 9 and 3, SVT2. Format: cell-based, murine. As to conditions: SVT2, 9.8 μM, 48 h. The protocol:
In particular, SVT2 and A431 were incubated for 48 h with 1-Me,Me and 1-Oct,Me, using the IC50 value concentrations. At the end of incubation, uptake and cell death mechanisms were evaluated. […] Finally, apoptosis was investigated by Western blot analyses using specific antibodies against pro-caspases 9 and 3.
The SVT2 were seeded on six-well plates at a density of 2.5 × 10^5 cells/well, whereas A431 was seeded at a density of 3 × 10^5 cells/well. After 24 h, cells were treated with 9.8 μM of 1-Me,Me or 2.3 μM 1-Oct,Me. After 48 h of incubation, Western blot analyses were performed by using pro-caspase 9 (Cell Signaling Technology, Danvers, MA, USA) and pro-caspase 3 (Abcam, Cambridge, MA, USA) antibodies, as reported by Del Giudice et al. Protein intensity levels were normalized using β-actin (Sigma-Aldrich, St. Louis, MO, USA). The chemiluminescence detection system was purchased from Bio-Rad (Hercules, CA, USA).
(In western blotting, separated proteins are transferred to a membrane and probed.)

With “Platinum(1+), (2,9-dimethyl-1,10-phenanthroline- N1,N10)(η2-ethene)methyl[1,3-dihydro-1,3-dimethyl-4-[1-[2,3,4,6-tetrakis-O-(acetyl)-β-D-glucopyranosyl]-1H-1,2,3-triazol-4-yl]-2H-imidazol-2-ylidene], 1,1,1-trifluoromethanesulfonate [1-Me,Me]”, the IC50 in series [1] is 8.4 ± 1.7 µM; in series [3] (48 h incubation, MTT), 9.8 ± 0.3 µM; in series [5] (48 h incubation, MTT), 20 ± 2 µM. For the same substance, in series [2], the “Log Po/w” value is given as 0.42. The “fluorescence intensity of EB-DNA complex” value in the series on Calf thymus DNA was “significant reduction in fluorescence intensity”. For the same substance, the entries for the “SI (selectivity index)” value in series [3] (ratio IC50 BALB-c/3T3 / IC50 SVT2) and in series [5] (ratio IC50 HaCaT / IC50 A431) were 2.65 and 0.42, respectively. Further, the “stability, UV-vis spectra over time” value in series [4] is “poor stability”. Besides, the “pro-caspases 9 and 3 levels” value with SVT2 cells was “significant decrease in pro-caspases 9 and 3 levels”.
